Measurements as given in paper PMC7917936, “Synthesis and Self-Assembly Properties of Bola-Amphiphilic Glycosylated Lipopeptide-Type Supramolecular Hydrogels Showing Colour Changes Along with Gel–Sol Transition” (International Journal of Molecular Sciences, 2021).

Test: Measurement of the gel–sol transition temperature (Tgel), vial inversion method
Type: physicochemical
Details: hydrogel at CGC (0.19 wt%), 200 mM HEPES–NaOH buffer (pH 8.0), oil bath 25 to 85 °C, 1 °C/step, 1 min per step
Protocol: The gel–sol phase transition behaviour of the βGal–AAC–C6–F3 hydrogel (0.19 wt% (CGC) in 200 mM HEPES–NaOH buffer (pH 8.0)) was determined using the vial inversion method. The inverted gel in the vial was placed in an oil bath, which was heated from 25 °C to 85 °C, at a rate of 1 °C/step. The vial was immersed at each temperature for 1 min to equilibrate. The temperature, at which the sample completely dissolved, was defined as the Tgel value of the gel.

Structure (SMILES): O=C(CCCCCCN1C(=O)C(Cl)=C(Nc2ccc(O[C@@H]3O[C@H](CO)[C@H](O)[C@H](O)[C@H]3O)cc2)C1=O)N[C@@H](Cc1ccccc1)C(=O)N[C@@H](Cc1ccccc1)C(=O)N[C@@H](Cc1ccccc1)C(=O)O [βGal–AAC–C6–F3]
- Tgel (gel-to-sol phase transition temperature): 78 °C
